Assay results as given in US20090275780A1, “PROCESS FOR CONTROLLING THE PARTICLE SIZE OF A 3-(TRIFLUOROMETHYL)PHENYL]-1-AMINOPROPANE DERIVATIVE” (MEDICHEM, S.A., priority 2008, published 2009).

Assay: Particle size distribution by Malvern Mastersizer S particle size analyzer
Assay type: physicochemical
Settings: for AFTER MILLING D[v, 0..5] / AFTER MILLING D[v, 0.9]: after milling 1 hour, Specac Specamill, three agate balls, maximum amplitude; for BEFORE MILLING D[v, 0.9]: in µm (unit assumed); for particle size D[v, 0.5] / particle size D[v, 0.9]: crystals as isolated after crystallization from isobutyl acetate and drying, by volume, mean of nine readings, hydrochloride
Method: The particle size for cinacalcet hydrochloride was measured using a Malvern Mastersizer S particle size analyzer with an MS1 Small Volume Sample Dispersion Unit stirred cell. A 300RF mm lens and a beam length of 2.4 mm were used. Samples for analysis were prepared by dispersing a weighed amount of cinacalcet hydrochloride (approximately 60 mg) in 20 mL of sample dispersant, previously prepared by dilution of 1.5 g of Soybean Lecithin to 200 mL with Isopar G. The suspension was delivered drop-wise to the background-corrected measuring cell filled with dispersant (Isopar G) until the obscuration reached the desired level. Nine repeated readings of the volume distributions were taken. For characterization, the values of D50 and D90 (by volume) were selected and reported as the mean of the nine values measured.

[1] = listed as Cinacalcet hydrochloride from Example 4, hydrochloride
[2] = listed as Cinacalcet hydrochloride from Example 9, hydrochloride
[3] = listed as Cinacalcet hydrochloride from Example 7, hydrochloride

SMILES | particle size D[v, 0.5] [μm] | particle size D[v, 0.9] [μm] | also measured
C[C@@H](NCCCc1cccc(C(F)(F)F)c1)c1cccc2ccccc12.Cl [Example 4, cinacalcet hydrochloride] | 57.7 | 403.9 | AFTER MILLING D[v, 0..5] [1]: 25.7 µm; AFTER MILLING D[v, 0.9] [1]: 91.8 µm; BEFORE MILLING D[v, 0..5] [1]: 57.7 µm; BEFORE MILLING D[v, 0.9] [1]: 403.9
C[C@@H](NCCCc1cccc(C(F)(F)F)c1)c1cccc2ccccc12.Cl [Example 6, cinacalcet hydrochloride] | 65.0 | 392.3 | 
C[C@@H](NCCCc1cccc(C(F)(F)F)c1)c1cccc2ccccc12.Cl [Example 2, cinacalcet hydrochloride] | 20.7 | 86.1 | 
C[C@@H](NCCCc1cccc(C(F)(F)F)c1)c1cccc2ccccc12.Cl [Example 1, cinacalcet hydrochloride] | 23.4 | 95.4 | 
C[C@@H](NCCCc1cccc(C(F)(F)F)c1)c1cccc2ccccc12.Cl [Example 5, cinacalcet hydrochloride] | 76.4 | 456.0 | 
C[C@@H](NCCCc1cccc(C(F)(F)F)c1)c1cccc2ccccc12.Cl [Example 3, cinacalcet hydrochloride] | 49.8 | 387.9 | 

Further lines, with some results ahead:

particle size D[v, 0.5] [μm] | particle size D[v, 0.9] [μm] | SMILES | also measured
99.8 | 466.9 | C[C@@H](NCCCc1cccc(C(F)(F)F)c1)c1cccc2ccccc12.Cl [Example 11, cinacalcet hydrochloride] | 
74.0 | 518.3 | C[C@@H](NCCCc1cccc(C(F)(F)F)c1)c1cccc2ccccc12.Cl [Example 9, cinacalcet hydrochloride] | AFTER MILLING D[v, 0..5] [2]: 25.1 µm; AFTER MILLING D[v, 0.9] [2]: 76.7 µm; BEFORE MILLING D[v, 0..5] [2]: 74 µm; BEFORE MILLING D[v, 0.9] [2]: 518.3
70.3 | 431.7 | C[C@@H](NCCCc1cccc(C(F)(F)F)c1)c1cccc2ccccc12.Cl [Example 7, cinacalcet hydrochloride] | AFTER MILLING D[v, 0..5] [3]: 21.2 µm; AFTER MILLING D[v, 0.9] [3]: 83.3 µm; BEFORE MILLING D[v, 0..5] [3]: 70.3 µm; BEFORE MILLING D[v, 0.9] [3]: 431.7
67.2 | 459.0 | C[C@@H](NCCCc1cccc(C(F)(F)F)c1)c1cccc2ccccc12.Cl [Example 8, cinacalcet hydrochloride] | 
